Test results taken from PubChem BioAssay AID220 (DTP/NCI, 2004).
Several values for one entry are separate records, joined by “and”; a condition that tells them apart may be missing. Identical values can stand only once. Inconclusive results are not listed.

Tested on: CD8F1 mice, subcutaneous mammary adenocarcinoma, T/C%
Assay: NCI In Vivo Anticancer Drug Screen. Data for tumor model Mammary Adenocarcinoma CD8F1 (subcutaneous) in CD8F1
Conditions: higher = larger tumour
Procedure: The antitumor activity of compounds was measured in mice bearing transplantable tumors. Survival or tumor size were measured and the results are expressed as the measurement made in the treated group (T) divided by the measurement made in the vehicle treated control group (C). The tumor model used in this assay is Mammary Adenocarcinoma CD8F1 (subcutaneous) in CD8F1

[1] = endpoint: median tumor weight change, dose: 62.5 mg/kg/injection, schedule: Q01DX001 (ip), vehicle: saline with Tween-80
[2] = endpoint: median tumor weight change, dose: 125.0 mg/kg/injection, schedule: Q01DX001 (ip), vehicle: saline with Tween-80
[3] = endpoint: median tumor weight (est.), dose: 12.5 mg/kg/injection, schedule: Q07DX005 (ip), vehicle: saline with Tween-80
[4] = endpoint: median tumor weight (est.), dose: 25.0 mg/kg/injection, schedule: Q07DX005 (ip), vehicle: saline with Tween-80
[5] = endpoint: median tumor weight (est.), dose: 100.0 mg/kg/injection, schedule: Q07DX005 (ip), vehicle: saline with Tween-80
[6] = endpoint: median tumor weight (est.), dose: 200.0 mg/kg/injection, schedule: Q07DX005 (ip), vehicle: saline with Tween-80
[7] = endpoint: median tumor weight (est.), dose: 6.25 mg/kg/injection, schedule: Q07DX005 (ip), vehicle: saline with Tween-80
[8] = endpoint: median tumor weight (est.), dose: 50.0 mg/kg/injection, schedule: Q07DX005 (ip), vehicle: saline with Tween-80
[9] = endpoint: median tumor weight (est.), dose: 6.25 mg/kg/injection, schedule: Q07DX005 (ip), vehicle: saline
[10] = endpoint: median tumor weight (est.), dose: 12.5 mg/kg/injection, schedule: Q07DX005 (ip), vehicle: saline
[11] = endpoint: median tumor weight (est.), dose: 25.0 mg/kg/injection, schedule: Q07DX005 (ip), vehicle: saline
[12] = endpoint: median tumor weight (est.), dose: 50.0 mg/kg/injection, schedule: Q07DX005 (ip), vehicle: saline
[13] = endpoint: median tumor weight (est.), dose: 12.5 mg/kg/injection, schedule: Q07DX005 (ip), vehicle: Klucel (hydroxypropylcellulose) (HPC)
[14] = endpoint: median tumor weight (est.), dose: 25.0 mg/kg/injection, schedule: Q07DX005 (ip), vehicle: Klucel (hydroxypropylcellulose) (HPC)
[15] = endpoint: median tumor weight (est.), dose: 50.0 mg/kg/injection, schedule: Q07DX005 (ip), vehicle: Klucel (hydroxypropylcellulose) (HPC)
[16] = endpoint: median tumor weight (est.), dose: 100.0 mg/kg/injection, schedule: Q07DX005 (ip), vehicle: Klucel (hydroxypropylcellulose) (HPC)
[17] = endpoint: median tumor weight change, dose: 125.0 mg/kg/injection, schedule: Q01DX001 (ip), vehicle: saline
[18] = endpoint: median tumor weight change, dose: 250.0 mg/kg/injection, schedule: Q01DX001 (ip), vehicle: saline

C[Si](C)(C)O/C=C1\CCCCC1=O
T/C (endpoint: median tumor weight change, dose: 62.0 mg/kg/injection, schedule: Q01DX001 (ip), vehicle: saline with Tween-80): 70 % of control
T/C [1]: 119 % of control
T/C [2]: 54 % of control and 69 % of control
T/C (endpoint: median tumor weight change, dose: 250.0 mg/kg/injection, schedule: Q01DX001 (ip), vehicle: saline with Tween-80): 93 % of control

COC1/C=C/C=C(/C)Cc2cc(O)c(Cl)c(c2)N(C)C(=O)CC(OC(=O)C(C)C)C2(C)OC2C(C)C2CC1(O)NC(=O)O2 (stereo not drawn)
T/C (endpoint: median tumor weight change, dose: 0.62 mg/kg/injection, schedule: Q01DX001 (ip), vehicle: saline + alcohol): 49 % of control
T/C (endpoint: median tumor weight change, dose: 1.25 mg/kg/injection, schedule: Q01DX001 (ip), vehicle: saline + alcohol): 34 % of control and 54 % of control
T/C (endpoint: median tumor weight change, dose: 2.5 mg/kg/injection, schedule: Q01DX001 (ip), vehicle: saline + alcohol): 50 % of control and 70 % of control
T/C (endpoint: median tumor weight change, dose: 5.0 mg/kg/injection, schedule: Q01DX001 (ip), vehicle: saline + alcohol): 54 % of control and 55 % of control
T/C (endpoint: median tumor weight change, dose: 10.0 mg/kg/injection, schedule: Q01DX001 (ip), vehicle: saline + alcohol): 35 % of control and 60 % of control
T/C (endpoint: median tumor weight change, dose: 20.0 mg/kg/injection, schedule: Q01DX001 (ip), vehicle: saline + alcohol): 48 % of control

CC[n+]1c(-c2ccccc2)c2cc(N)ccc2c2ccc(N)cc21
T/C (endpoint: median tumor weight (est.), dose: 10.0 mg/kg/injection, schedule: Q07DX005 (ip), vehicle: water): 85 % of control
T/C (endpoint: median tumor weight (est.), dose: 20.0 mg/kg/injection, schedule: Q07DX005 (ip), vehicle: water): 105 % of control

NC(Cc1cc([N+](=O)[O-])ccc1CN(CCCl)CCCl)C(=O)O (stereo not drawn)
T/C (endpoint: median tumor weight (est.), dose: 2.0 mg/kg/injection, schedule: Q07DX005 (ip), vehicle: Klucel (hydroxypropylcellulose) (HPC)): 8 % of control

O=C1NC(=O)/C(=C/C=C/c2ccccc2)S1
T/C [3]: 66 % of control
T/C [4]: 100 % of control
T/C [5]: 81 % of control
T/C [6]: 101 % of control

O=C(CO)c1ccc([N+](=O)[O-])cc1
T/C [7]: 117 % of control
T/C [3]: 112 % of control
T/C [4]: 91 % of control
T/C [8]: 118 % of control
T/C [6]: 86 % of control

C/C=C1\C[C@@H]2C(OC)Nc3cc(O)c(OC)cc3C(=O)N2C1 (stereo partly drawn)
T/C (endpoint: median tumor weight change, dose: 0.06 mg/kg/injection, schedule: Q01DX001 (ip), vehicle: saline): 105 % of control
T/C (endpoint: median tumor weight change, dose: 0.12 mg/kg/injection, schedule: Q01DX001 (ip), vehicle: saline): 96 % of control
T/C (endpoint: median tumor weight change, dose: 0.25 mg/kg/injection, schedule: Q01DX001 (ip), vehicle: saline): 105 % of control
T/C (endpoint: median tumor weight change, dose: 0.31 mg/kg/injection, schedule: Q01DX001 (ip), vehicle: suspension in saline): 76 % of control
T/C (endpoint: median tumor weight change, dose: 0.5 mg/kg/injection, schedule: Q01DX001 (ip), vehicle: saline): 90 % of control
T/C (endpoint: median tumor weight change, dose: 0.62 mg/kg/injection, schedule: Q01DX001 (ip), vehicle: suspension in saline): 53 % of control
T/C (endpoint: median tumor weight change, dose: 1.0 mg/kg/injection, schedule: Q01DX001 (ip), vehicle: saline): 92 % of control
T/C (endpoint: median tumor weight change, dose: 1.25 mg/kg/injection, schedule: Q01DX001 (ip), vehicle: suspension in saline): 43 % of control
T/C (endpoint: median tumor weight change, dose: 2.0 mg/kg/injection, schedule: Q01DX001 (ip), vehicle: saline): 42 % of control

OCCOCCN1CCN(CCCN2c3ccccc3Sc3ccc(C(F)(F)F)cc32)CC1
T/C (endpoint: median tumor weight (est.), dose: 3.12 mg/kg/injection, schedule: Q07DX005 (ip), vehicle: saline): 53 % of control
T/C [9]: 97 % of control
T/C [10]: 95 % of control
T/C [11]: 71 % of control
T/C [12]: 97 % of control

c1ccc2sc(SSN3CC4CCC(CC4)C3)nc2c1
T/C [3]: 26 % of control
T/C [4]: 33 % of control
T/C [8]: 101 % of control
T/C [5]: 81 % of control
T/C [6]: 62 % of control
T/C (endpoint: median tumor weight (est.), dose: 400.0 mg/kg/injection, schedule: Q07DX005 (ip), vehicle: saline with Tween-80): 53 % of control

COc1cc(O)c2c(O)c3c(c4c2c1[C@]1(C4)C(C)=CCCC1(C)C)[C@H](O)[C@@]1(O)CC(=O)C(C(N)=O)=C(O)[C@@]1(O)C3=O
T/C [7]: 56 % of control
T/C [9]: 47 % of control
T/C [3]: 92 % of control
T/C [10]: 58 % of control
T/C [4]: 95 % of control
T/C [11]: 87 % of control
T/C [8]: 89 % of control
T/C [12]: 81 % of control
T/C (endpoint: median tumor weight (est.), dose: 100.0 mg/kg/injection, schedule: Q07DX005 (ip), vehicle: saline): 37 % of control

Cc1cc(=NO)cc(C)n1O
T/C (endpoint: median tumor weight change, dose: 125.0 mg/kg/injection, schedule: Q01DX001 (ip), vehicle: distilled water + alcohol): 52 % of control and 77 % of control
T/C (endpoint: median tumor weight change, dose: 250.0 mg/kg/injection, schedule: Q01DX001 (ip), vehicle: distilled water + alcohol): 78 % of control and 80 % of control
T/C (endpoint: median tumor weight change, dose: 500.0 mg/kg/injection, schedule: Q01DX001 (ip), vehicle: distilled water + alcohol): 69 % of control and 78 % of control

Clc1ccc(C(c2ccccc2Cl)C(Cl)Cl)cc1 (stereo not drawn)
T/C [13]: 124 % of control
T/C [14]: 118 % of control
T/C [15]: 175 % of control
T/C [16]: 92 % of control

O=C1C(NCCO)=C(N2CC2)C(=O)C(NCCO)=C1N1CC1
T/C (endpoint: median tumor weight change, dose: 0.62 mg/kg/injection, schedule: Q01DX001 (ip), vehicle: saline): 73 % of control
T/C (endpoint: median tumor weight change, dose: 0.63 mg/kg/injection, schedule: Q01DX001 (ip), vehicle: saline): 36 % of control
T/C (endpoint: median tumor weight change, dose: 5.0 mg/kg/injection, schedule: Q01DX001 (ip), vehicle: saline): 25 % of control

C[n+]1c2cc(N)ccc2cc2ccc(N)cc21
T/C [9]: 104 % of control
T/C [10]: 211 % of control

OCC1OC(n2cnc3c(NO)ncnc32)C(O)C1O (stereo not drawn)
T/C [13]: 104 % of control
T/C [14]: 66 % of control
T/C [15]: 85 % of control
T/C [16]: 91 % of control
T/C (endpoint: median tumor weight (est.), dose: 200.0 mg/kg/injection, schedule: Q07DX005 (ip), vehicle: Klucel (hydroxypropylcellulose) (HPC)): 69 % of control
T/C (endpoint: median tumor weight (est.), dose: 400.0 mg/kg/injection, schedule: Q07DX005 (ip), vehicle: Klucel (hydroxypropylcellulose) (HPC)): 113 % of control

C=CC(=O)N1CN(C(=O)C=C)CN(C(=O)C=C)C1
T/C (endpoint: median tumor weight (est.), dose: 3.12 mg/kg/injection, schedule: Q07DX005 (ip), vehicle: saline with Tween-80): 89 % of control
T/C [7]: 111 % of control
T/C [3]: 31 % of control

COC12C(COC(=O)NCCO)C3=C(C(=O)C(C)=C(N)C3=O)N1CC1NC12 (stereo not drawn)
T/C (endpoint: median tumor weight change, dose: 12.5 mg/kg/injection, schedule: Q01DX001 (ip), vehicle: Klucel (hydroxypropylcellulose) (HPC)): 77 % of control
T/C (endpoint: median tumor weight change, dose: 25.0 mg/kg/injection, schedule: Q01DX001 (ip), vehicle: Klucel (hydroxypropylcellulose) (HPC)): 78 % of control
T/C (endpoint: median tumor weight change, dose: 50.0 mg/kg/injection, schedule: Q01DX001 (ip), vehicle: Klucel (hydroxypropylcellulose) (HPC)): 33 % of control
T/C (endpoint: median tumor weight change, dose: 100.0 mg/kg/injection, schedule: Q01DX001 (ip), vehicle: Klucel (hydroxypropylcellulose) (HPC)): -64 % of control

CN(CCN(C)C(=O)CCOS(C)(=O)=O)C(=O)CCOS(C)(=O)=O
T/C (endpoint: median tumor weight change, dose: 62.0 mg/kg/injection, schedule: Q01DX001 (ip), vehicle: saline): 67 % of control
T/C [1]: 43 % of control
T/C (endpoint: median tumor weight change, dose: 62.5 mg/kg/injection, schedule: Q01DX001 (ip), vehicle: suspension in saline): 39 % of control
T/C [2]: 15 % of control
T/C [17]: 3 % of control
T/C (endpoint: median tumor weight change, dose: 125.0 mg/kg/injection, schedule: Q01DX001 (ip), vehicle: suspension in saline): 10 % of control
T/C [18]: 51 % of control
T/C (endpoint: median tumor weight change, dose: 500.0 mg/kg/injection, schedule: Q01DX001 (ip), vehicle: saline with Tween-80): -17 % of control

C=C(C(=O)O)C(N)C(=O)O (stereo not drawn)
T/C (endpoint: median tumor weight change, dose: 62.5 mg/kg/injection, schedule: Q01DX001 (ip), vehicle: saline): 96 % of control
T/C [17]: 100 % of control
T/C [18]: 61 % of control
T/C (endpoint: median tumor weight change, dose: 500.0 mg/kg/injection, schedule: Q01DX001 (ip), vehicle: saline): 71 % of control
